The record followed here is PubChem BioAssay (NCI).

What all share (assay): NCI tumour cell line growth inhibition, 48 h
The test system of test [1] is SN12C renal.
The subject of test [2] is KM12 colon.
Test [3] relates to IGROV1 ovarian.
In test [4] the test system is HL-60(TB) leukemia.
Test [5] relates to COLO 205 colon.
Test [6] concerns HCC-2998 colon.
Test [7] has as its system SF-268 CNS.
In test [8] the test system is U251 CNS.
In test [9] the test system is HCT-15 colon.
Test [10] deals with SK-MEL-28 melanoma.

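48-hour exposure; five concentrations; linearly interpolated endpoints. Abbreviation: GI50, concentration required for 50% inhibition of growth. TGI: total growth inhibition.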

Take `N#Cc1cc([N+](=O)[O-])ccc1NC(=O)C(=O)C(C(=O)/C=C/c1ccccc1)C1OC(=O)c2ccccc21` (stereo not given): the TGI in test [1], in [2], in test [3], in [4], in [5] and in test [6] was greater than 100 µM each time. For the same compound, the TGI in test [7], in test [8], in test [9] and in [10] was greater than 100 µM each time.

`COc1ccc(/C=C/c2n[nH]c3ccc(N4CCOC4=O)cc23)cc1`: the GI50 is 2.14 µM in [1]; 1.02 µM in [2]; 2.53 µM in test [3]; 1.44 µM in [4]; 0.501 µM in test [5]; 2.3 µM in [6]. The GI50 was 3.64 µM in test [7], 2.51 µM in [8], 1.12 µM in test [9] and 3.39 µM in [10]. Also, the TGI in test [1] is greater than 100 µM; in [2], 27.1 µM; in test [3], greater than 100 µM; in test [4] it was 4.04 µM; in test [5], 3.05 µM; in test [6], 7.17 µM. In addition, the TGI in test [7] was greater than 100 µM; in test [8], greater than 100 µM; in [9], 12.5 µM; in [10], 12.4 µM.

For the compound `COC1=CC(c2ccc[nH]2)=N/C1=C\c1[nH]c(C)c(C(=O)CCCCC(=O)Nc2ccccc2)c1C`, the GI50 in test [1] is 1.67 µM; in [2], 1.03 µM; in test [3], 0.811 µM; in test [4] it was 1.84 µM; in [5] it was 1.75 µM; in [6], 3.78 µM. Also, the GI50 in test [7] is 1.26 µM; in test [8], 1.29 µM; in test [9], 0.679 µM; in test [10], 1.63 µM. The TGI in test [1] was 4.38 µM; in [2] it was 2.3 µM; in test [3], 2.07 µM; in [4], 5.37 µM; in test [5], 3.8 µM; in test [6] it was 16.7 µM. In addition, the TGI was found to be 2.72 µM in [7], 2.56 µM in test [8], 2.44 µM in test [9] and 3.2 µM in [10].

On to `CC(C)=CC(=O)Cc1nc2cc(C)c(C)cc2[nH]c1=O`, for which the TGI in test [1], in test [2], in [3], in [4], in [5] and in test [6] was greater than 100 µM in each case. For the same compound, the TGI in test [7], in [8], in test [9] and in [10] was greater than 100 µM each time.

As to `N.N.NCCCCN.O=C([O-])C1(C(=O)[O-])CCC1.O=C([O-])C1(C(=O)[O-])CCC1.[Pt+4].[Pt+4]`, the GI50 in test [1] is 63.8 µM; in test [2] it was greater than 100 µM; in test [3], greater than 100 µM; in test [4] it was greater than 100 µM; in [5], greater than 100 µM; in test [6], greater than 100 µM. Besides, the GI50 in test [7] is 97.4 µM; in [8], greater than 100 µM; in [9] it was greater than 100 µM; in [10], greater than 100 µM. The TGI in test [1], in test [2], in [3], in test [4], in [5] and in [6] was greater than 100 µM throughout. The TGI in [7], in test [8], in [9] and in test [10] was greater than 100 µM each time.

Consider `COc1cc(/C=C2\COc3ccc(O)c(O)c3C2=O)cc(OC)c1`, for which the GI50 in test [1] is 1.63 µM; in test [2], 1.54 µM; in test [3] it was 1.36 µM; in [4], 0.842 µM; in test [5] it was 1.75 µM; in test [6] it was 1.85 µM. In addition, the GI50 in [7] is 1.68 µM; in [8], 0.861 µM; in test [9], 0.483 µM; in test [10], 2.97 µM. The TGI turned out to be 8.24 µM in test [1]; 3.58 µM in [2]; 5.22 µM in [3]; 11.2 µM in test [4]; 5.68 µM in test [5]; 3.5 µM in [6]. The TGI in test [7] turned out to be 5.34 µM; in test [8] it was 4.09 µM; in test [9] it was 10.8 µM; in test [10], 10.4 µM.

`NCCNC(=S)S`: the TGI in test [1], in [2], in [3], in test [4], in [5] and in [6] was greater than 100 µM each time. Further, the TGI in test [7] was 31.1 µM; in test [8], greater than 100 µM; in test [9], greater than 100 µM; in test [10], greater than 100 µM.

Turning to `CC1=C(C(=O)NCc2ccccc2)C(c2ccccc2[N+](=O)[O-])C(C(=O)NCc2ccccc2)=C(C)N1`, the TGI in [1] is 27.4 µM; in [2] it was 23.1 µM; in test [3], 40.9 µM; in test [4], 13.2 µM; in test [5] it was 33.8 µM; in test [6] it was 31.2 µM. Moreover, the TGI was determined as 22.9 µM in test [7], 22.8 µM in test [8], 22.4 µM in test [9] and 26 µM in test [10].

As for `Cc1ccccc1C(C#N)C(=O)C(=O)Nc1cccc(Cl)c1` (stereo not given), the TGI in [1], in [2], in test [3], in [4], in [5] and in test [6] was greater than 100 µM in each case. Moreover, the TGI in [7], in test [8], in test [9] and in test [10] was greater than 100 µM in each case.

In the case of `N#Cc1ccnc(N2C(=O)CC[C@H]2C(=O)N(c2cncc(F)c2)[C@H](C(=O)NC2CC(F)(F)C2)c2ccccc2Cl)c1`, the GI50 in test [1] was 60.8 µM; in test [2] it was 67 µM; in test [3] it was 44.5 µM; in test [4] it was greater than 100 µM; in test [5], greater than 100 µM; in [6], greater than 100 µM. Further, the GI50 in [7] is 56.2 µM; in [8] it was greater than 100 µM; in test [9], 88.6 µM; in test [10], greater than 100 µM. Further, the TGI in test [1], in test [2], in [3], in test [4], in test [5] and in [6] was greater than 100 µM each time. The TGI in test [7], in test [8], in test [9] and in [10] was greater than 100 µM in each case.
